In patent US20030134901A1, “Lipoxin compounds and their use in treating cell proliferative disorders” (priority 1993, published 2003):

Key:
[1] = target: T1, LXA4 specific binding sites of differentiated HL-60 cells (Homo sapiens, UniProt P25090); test: 3H-LXA4 specific binding to differentiated HL-60 cells; conditions: for displacement of 3H-LXA4 specific binding: competition, competitor 300 nM where printed
T1 construct: endogenous in cells; host or cells: HL-60 cells differentiated with DMSO, retinoic acid or PMA; intact cells
T1 sequence (P25090 1-351): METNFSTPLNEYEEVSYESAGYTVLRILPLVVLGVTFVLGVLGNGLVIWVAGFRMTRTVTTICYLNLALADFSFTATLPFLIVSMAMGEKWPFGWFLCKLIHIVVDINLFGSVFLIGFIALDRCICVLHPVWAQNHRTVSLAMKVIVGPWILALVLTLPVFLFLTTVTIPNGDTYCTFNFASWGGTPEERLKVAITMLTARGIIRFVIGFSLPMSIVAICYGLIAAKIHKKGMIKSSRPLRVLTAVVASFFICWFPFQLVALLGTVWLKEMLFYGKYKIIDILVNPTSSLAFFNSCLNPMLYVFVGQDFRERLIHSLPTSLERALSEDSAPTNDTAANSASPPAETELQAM
Procedure: Preparation of [11,12-^3H]LXA4. Tritiation of 11,12-acetylenic LXA4 methyl ester was carried out under a custom tritiation service (NET-259:92-2326) by New England Nuclear (Boston, Mass.). Briefly, 11,12-acetylene methyl ester was characterized by UV absorbance and reverse-phase HPLC as in (Nicolaou, K. C. et al. (1985) J. Am. Chem. Soc. 107:7515) and exposed to tritium atmosphere in methylene chloride at room temperature. This incubation was stirred in the presence of Lindlar catalyst (1.0 mg from Fluka Chemicals) for˜1 h. The resulting mixture was stored in methanol and isolated using RP-HPLC. Tritiated products were chromatographed as methyl esters utilizing a gradient HPLC system equipped with a photodiode array rapid spectral detector (Serhan, C. N., Methods in Enzymology: Arachidonate Related Lipid Mediators, in Murphy R. C., Fitzpatrick, F. (eds.), vol. 187. Orlando, Fla., Academic, (1990), p. 167). This mixture contained both [11,12-^3H]LXA4 and [11,12-^3H]-11-trans-LXA4 methyl esters (˜1:3 ratio) as determined by coelution with synthetic standards. After RP-HPLC, fractions containing [11,12-^3H]LXA4 were collected, and extracted into ethyl acetate. The free acid was prepared by LiOH saponification (Fiore, S. et al. (1992) J. Biol. Chem. 267:16168). Material from these fractions, when injected into UV-electrochemical detection HPLC, gave greater than 90% of radioactivity associated with a tetraene-containing product that coeluted with synthetic LXA4. Materials that eluted with the retention time of authentic LXA4 in two HPLC systems were taken for binding experiments. The specific activity calculated for [11,12-^3H]LXA4 was 40.5 Ci/mmole.
Cell cultures and differentiation. HL-60 cells were seeded in RPMI medium supplemented with 100 U/ml penicillin, 100 μg/ml streptomycin, and 10% fetal calf serum (Hyclone, Logan, Utah), incubated at 37° C. with 5% CO2 atmosphere in 250 ml flasks. Individual flasks containing ˜[…] next received dimethyl sulfoxide (DMSO) (1.12% v/v, 120 h) or retinoic acid (RA) (1 μM, 120 h) or phorbol myristate acetate (PMA) (20 nM, 48 h). Before performing binding assays, cells were washed twice in phosphate buffered saline (PBS), Ca^2+- and Mg^2+-free, enumerated and suspended at 20×10^6 cells/ml in Tris buffer (10 mM), pH 7.4 (Fiore, S. et al.(1992) J. Biol. Chem. 267:16168). Nitro blue tetrazolium reduction was performed to monitor induction of polymorphonuclear phenotype as in (Imaizumi, M. and Breitman, T. R. (1986) Blood 67:1273), and cell adherence was determined for induction of macrophage-like phenotype (Collins, S. J. (1987) Blood 70:1273). Human umbilical vein endothelial cells (HUVEC) maintained in culture third passage were obtained from Dr. M. Gimbrone (Brigham and Women's Hospital Department of Pathology).
Ligand binding. ^3H-LXA4 and ^3H-LTB4 binding was performed essentially as in Fiore, S. et al.(1992) J. Biol. Chem. 267:16168. After suspending cells in Tris buffer 10 mM (pH 7.4, Ca^2+ 2.5 mM, Mg^2+ 1.2 mM), aliquots (0.5 ml) were incubated (20 min at 4° C.) with ^3H- ligands alone (0.3 nM) or in the presence of increasing concentrations of homoligands or other compounds (3-300 nM). The incubations were rapidly centrifuged (60 sec, 12,000 g) on silicon oil (d=1.028), and cell-associated radioactivity was determined by liquid scintillation counting (Wallac 1409, Pharmacia, Piscataway, N.J.). Binding experiments with HUVEC cells were performed in 12 well plates with 3.5×10^5 cells/well. After 10 min, wells were washed twice with PBS and cell-associated label was recovered by adding glacial acetic acid (0.5 ml). Results obtained from these assays were submitted for further analysis using the Ligand program (Elsevier-Biosoft, Cambridge, UK).

A549 cells = test: A549 cell proliferation, MTT assay; type: cell-based, human; conditions: for % inhibition: 10^−7 M, 72 hours at 37° C., mean ± SEM, 3 to 7 experiments
Procedure: A microculture 3,(4,5-dimethylthiazoyl-2-yl) 2,5 (diphenyl-tetrazolium bromide) (MTT) assay, (Marshall, N. J., et al. (1995) A critical assessment of the use of microculture tetrazolium assays to measure cell growth and function. Growth Regul. 5: 69-84.), was used to examine the actions of LXs and other eicosanoids on cell proliferation. A549 cells and fibroblasts from exponential-phase maintenance cultures were counted and dispensed within replicate 96-well culture plates in 100 μl volumes of medium (˜2000 cells/well). Following 24 hours at 37° C., the culture medium was removed, and fresh medium (100 μl) containing either the compounds (5-1000 nM) or vehicle (medium plus 0.15% ethanol) was added to 4 replicates for each condition studied and the culture plates were then incubated for up to 96 hours at 37° C. in a 5% CO2 atmosphere. At the end of this period, 25 μl of freshly prepared MTT in HBSS (5 mg/ml) was added to the wells and the plates were incubated for 4 hours at 37° C. Dye solution was aspirated, wells were washed once with HBSS and dye taken up by the cells was extracted in 100 μl of isopropyl alcohol:1 N HCl (96:4, v/v) and quantitated at 570 nm using a microplate reader (Molecular Devices, Menlo Park, Calif.). In some experiments, cells were grown in 12-well culture plates, treated as above and enumerated using a Neubauer hemocytometer. Viability was assessed routinely using trypan blue exclusion assay. For the A549 cells and fibroblasts, a linear relation was established for the MTT values and cell number within the range of the experiments shown (r=0.995, P<0.005). A549 cells grown for 72 hours in the presence of the compounds (5-1000 nM) or vehicle (0.15% EtOH) were lysed with 0.25 N NaOH and the cellular protein content was determined by applying the Bio-Rad (Richmond, Calif.) microassay method using bovine serum albumin as standard. The mean cellular protein content in resting A549 cells was 46.6±1.5 pg/cell.

PMA-treated HL-60 cells = test: Lipoxin metabolism / bio-half-life assay with phorbol ester-treated HL-60 cells; type: in vitro ADME, human; conditions: at times up to two hours
Procedure: HL-60 cells were purchased from American Type Culture Collection (Rockville, Md.), and other cell culture reagents were from GIBCO (Grand Island, N.Y.). Versene (EDTA) was from Whittaker Bioproducts (Walkersville, Md.). Synthetic 11,12-acetylenic LXA4 methyl ester and LXs were from Cascade Biochemical (Reading, U.K.). 15(S)-15-m-PGE1, PGE1, and 5-HETE were from Cayman Chemical Co. (Ann Arbor, Mich.). [11,12-^3H]LXA4 was prepared from 11,12-acetylenic LXA4 using Lindlar catalyst as a custom tritiation (NET-259, lot 0 2793-275, New England Nuclear, Boston, Mass.). Tritiated products were isolated using RP-HPLC (Fiore et al. (1992) J. Biol. Chem. 267:16168; Serhan, C. N. (1990) Meth. Enzymol. 187:167). Methoxyamine and NAD were from Sigma Chemical Company (St. Louis, Mo.). Manganese dioxide and Adams reagent were from Aldrich Chemical Co. (Milwaukee, Wis.).
Human PMN were obtained from healthy volunteers by gradient centrifugation of heparinized fresh venous blood (Böyum, A. ([…]) Scand. J. Clin. Lab. Invest. 21:77). HL-60 cells were seeded in RPMI supplemented with penicillin (100 U/ml), streptomycin (100 μ/ml), fetal bovine serum (10%) (Hyclone, Logan, Utah) and incubated (37° C. with 5% CO2 atmosphere) in plastic 250 ml flasks. Individual flasks containing […] HL-60 cells/ml were incubated in the presence or absence of phorbol 12-myristate 13-acetate (PMA) (10 or 16 nM, 24-27 h) and adherence was monitored for induction of macrophage-like phenotype as in Collins, S. J. (1987) Blood 70:1233. […]
Incubations with eicosanoids were stopped with cold methanol containing either PGB2 or 5-HETE as internal standards (5-HETE was used when 15-oxo-ETE was quantified). […] Formation of 15-oxo-ETE by 100,000 g supernatants (cf. Agins, A. P. et al. (1987) Agents Actions 21:397; Xun, C-Q. et al.(1991) Biochem. J. 279:553; and Sok, D-E. et al. (1988) Biochem. Biophys. Res. Commun. 156:524) was quantified after RP-HPLC using an ODS column (4.6 mm×25 cm) eluted with methanol/H2O/acetic acid (70:30:0.01, v/v/v) monitored at 280 nm with a flow rate of 1 ml/min. […] On-line spectra were recorded using a diode array detector (Hewlett-Packard 1040M series II) equipped with HPLC^3D ChemStation software (DOS series). […]
The “bio-half-life” of compounds 1-8 was assessed using phorbol ester-treated human promyelocytic leukemia (HL-60) cells as described in Example 2. […]

Compound | displacement of 3H-LXA4 specific binding [1] | % inhibition (A549 cells) [%] | also measured
trihydroxyheptanoic acid (methyl ester) | Neither LXB4, LTB4, nor trihydroxyheptanoic acid (methyl ester) (300 nM) were able to displace | – | –
CCCCC[C@@H](O)C(O)/C=C/C=C/C=C\C=C\C(O)CCCC(=O)O (stereo in doubt) [15-epi-LXB4, 15R-5,14,15-trihydroxy-6,10,12-trans-8-cis-eicosatetraenoic acid] | – | 79.3 ± 0.3 | inhibition proliferation (A549 cells; equimolar levels (100 nM), Table 1): ~80%
COc1ccc(/C=C/CCCCOc2cccc(OCCCCC(=O)O)c2CCC(=O)O)cc1 [ONO-4057] | did not displace | – | –
CCCCC/C=C\C\C=C/C=C/C=C/[C@@H](SC[C@H](NC(=O)CC[C@H](N)C(=O)O)C(=O)NCC(=O)O)[C@@H](O)CCCC(=O)O [LTC4] | – | – | decrease of 3H-LXA4 specific binding ([1]; added in 3 log molar excess): ~30%
cyclohexyl-LXA4 [compound 4] | – | – | recovery in the incubation medium (bio-half-life) (PMA-treated HL-60 cells): quantitatively recovered
CCCCC[C@@H](O)/C=C/C=C\C=C\C=C\C(O)C(O)CCCC(=O)O (stereo in doubt) [15-epi-LXA4, 15R-5,6,15-trihydroxy-7,9,13-trans-11-cis-eicosatetraenoic acid] | – | 20.1 ± 1.9 | inhibition of A549 cell growth compared with LXA4 (A549 cells; equimolar levels (100 nM)): to a similar extent as LXA4
